Assay results published in patent publication US20060063210A1, “Histone deacetylase whole cell enzyme assay” (Methylgene, Inc., priority 2004, published 2006).

Key:
SirT1 (HCT116 cells) = target: T1, SirT1 (HCT116 cells) (Homo sapiens, UniProt Q96EB6); assay: whole cell sirtuin (SirT1) activity in HCT116 cells with Fluor-de-Lys-SirT1 substrate; format: cell-based
T1 construct: endogenous in cells; host or cells: HCT116
T1 sequence (Q96EB6 1-747): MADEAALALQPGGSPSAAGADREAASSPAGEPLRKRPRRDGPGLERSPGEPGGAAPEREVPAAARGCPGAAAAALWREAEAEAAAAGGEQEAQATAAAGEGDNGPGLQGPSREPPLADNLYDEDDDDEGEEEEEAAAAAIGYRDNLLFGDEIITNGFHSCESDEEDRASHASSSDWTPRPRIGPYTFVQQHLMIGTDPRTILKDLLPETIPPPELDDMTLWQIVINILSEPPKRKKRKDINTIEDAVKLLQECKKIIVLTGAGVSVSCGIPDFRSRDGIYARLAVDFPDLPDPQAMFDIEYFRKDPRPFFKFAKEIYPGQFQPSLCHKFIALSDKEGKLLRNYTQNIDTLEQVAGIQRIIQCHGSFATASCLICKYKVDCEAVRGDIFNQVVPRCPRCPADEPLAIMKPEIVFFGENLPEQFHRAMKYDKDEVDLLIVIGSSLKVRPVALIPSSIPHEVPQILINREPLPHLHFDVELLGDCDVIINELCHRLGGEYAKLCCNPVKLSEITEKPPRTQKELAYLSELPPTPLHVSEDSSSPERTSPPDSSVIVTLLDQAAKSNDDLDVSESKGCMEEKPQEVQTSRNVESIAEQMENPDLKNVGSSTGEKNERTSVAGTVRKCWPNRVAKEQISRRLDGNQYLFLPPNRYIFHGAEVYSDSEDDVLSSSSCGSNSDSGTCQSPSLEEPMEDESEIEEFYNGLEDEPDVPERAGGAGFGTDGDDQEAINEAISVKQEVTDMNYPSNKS
Excerpt: Cultured cells (HCT116) were trypsinized and counted by trypan blue exclusion. Live cells (2×10^5) were distributed to each well of the 96-well plate. […] Independently, we fixed concentrations of either Fluor-de-Lys-SirT1 substrate or Fluor-de-Lys-SirT2 in whole cells and analyzed the effect of exogeneous NAD+ concentration on whole cell sirtuin activity (FIG. 7b). […] Therefore the reading was done immediately after stopping.
Cultured HCT116 cells were counted and distributed to each well of the 96-well plate. […] After addition of Sirtuin substrate (Fluor-de-Lys-SirT1, 500 uM) or HDAC substrate Boc-Lys(Ac)-AMC (300 uM), the cells are further incubated for an additional 2 hours. Reaction was stopped and read as described in Examples 3 and 6. […] This observation is consistent with our finding in Example 7 that TSA can not inhibit class III (Sirtuins) in vitro.

HDAC (293T cells) = assay: whole cell deacetylase (HDAC) assay in 293T cells with Boc-Lys(Ac)-AMC; format: cell-based, human; details: for IC50: pre-incubated with inhibitors 16 hours, mean of at least 2 experiments
Method: (§1) Freshly trypsinized cells were dispensed into 96-well black Costar E1A/RIA plates (Corning Inc., Corning, N.Y.). Small molecule substrate Boc-Lys(Ac)-AMC (Bachem Biosciences Inc., King of Prussia, Philadelphia) was added to cell suspension with the final concentration of 300 uM. Cells were placed in 37° C. incubator with 5% CO2 for 90 minutes. Reaction was stopped by adding a freshly prepared Flouor-de-Lys™ deleveloper (Biomol, Plymouth Meeting, Philadelphia) with 1 uM TSA (Biomol) in assay buffer (25 mM Tris, HCl pH8.0, 137 mM NaCl, 2.7 mM KCl, 1 mM MgCl2) plus 1% NP-40. With the presence of 1% NP-40, both excellular and intracellular HDAC activity was measured in cultured cells altogether.
(§2) HDAC enzyme assay in intact cells was carried out as described in Example 3.

HDAC (A549 cells) = assay: whole cell deacetylase (HDAC) assay in A549 cells with Boc-Lys(Ac)-AMC; format: cell-based, human; details: pre-incubated with inhibitors 16 hours, mean of at least 2 experiments
Method: as §1, §2

HDAC (Du145 cells) = assay: whole cell deacetylase (HDAC) assay in Du145 cells with Boc-Lys(Ac)-AMC; format: cell-based, human; details: pre-incubated with inhibitors 16 hours, mean of at least 2 experiments
Method: as §1, §2

HDAC (HCT116 cells) = assay: whole cell deacetylase (HDAC) assay in HCT116 cells with Boc-Lys(Ac)-AMC; format: cell-based, human; details: pre-incubated with inhibitors 16 hours, mean of at least 2 experiments
Method: as §1, §2
Cultured HCT116 cells were counted and distributed to each well of the 96-well plate. […] After addition of Sirtuin substrate (Fluor-de-Lys-SirT1, 500 uM) or HDAC substrate Boc-Lys(Ac)-AMC (300 uM), the cells are further incubated for an additional 2 hours. Reaction was stopped and read as described in Examples 3 and 6.

HDAC (Jurkat T cells) = assay: whole cell deacetylase (HDAC) assay in Jurkat T cells with Boc-Lys(Ac)-AMC; format: cell-based, human; details: pre-incubated with inhibitors 16 hours, mean of at least 2 experiments
Method: as §1, §2

[1] = system: HDAC (human white blood cells); assay: ex vivo inhibition of whole cell HDAC activity in human white blood cells; format: cell-based; details: 16 hours incubation
Method: Whole blood (human or mouse) was centrifuged at 2500 rpm for 10 minutes at ambient temperature in a Sorvall RT-7 centrifuge (Mandel Scientific Co., Guelph, Ontario). Plasma was removed and buffy coat was collected. Five volumes of Erythrocyte Lysis Buffer (EL) (Qiagen Canada Inc., Mississauga, Ontario) were added to buffy coat. Buffy coat was incubated on ice for 20 minutes before it was centrifuged at 400 g for 10 minutes at 4° C. Supernatant was removed and buffy coat was washed twice with EL buffer and re-centrifugation. Buffy coat was resuspended in RPMI media and cells (white blood cells) were counted with trypan blue exclusion.

NC(=O)c1ccc[n+]([C@@H]2O[C@H](COP(=O)([O-])OP(=O)(O)OC[C@H]3O[C@@H](n4cnc5c(N)ncnc54)[C@H](O)[C@@H]3O)[C@@H](O)[C@H]2O)c1 [NAD+]
effect of exogenous NAD+ on whole cell sirtuin activity (SirT1 (HCT116 cells); HCT116 cells, fixed Fluor-de-Lys-SirT1 or Fluor-de-Lys-SirT2 substrate): no effect on whole cell sirtuin activity

CC(=O)O[C@H]1C(=O)[C@@]2(C)[C@H]([C@H](OC(=O)c3ccccc3)[C@]3(O)C[C@H](OC(=O)[C@H](O)[C@@H](NC(=O)c4ccccc4)c4ccccc4)C(C)=C1C3(C)C)[C@]1(OC(C)=O)CO[C@@H]1C[C@@H]2O [taxol]
effect on HDAC activity in whole cells (HDAC (293T cells)): no effect on HDAC activity
IC50 (HDAC (293T cells)): > 50 µM

O=C(/C=C/c1ccc(CN(CCO)CCc2c[nH]c3ccccc23)cc1)NO [LAQ-824]
IC50 (HDAC (A549 cells)): 0.02 µM
IC50 (HDAC (Du145 cells)): 0.05 µM
IC50 (HDAC (HCT116 cells)): 0.06 µM
IC50 (HDAC (293T cells)): 0.04 µM
IC50 (HDAC (Jurkat T cells)): 0.04 µM
inhibition of whole cell HDAC activity in human white blood cells [1]: dose-dependent inhibition

NC(=O)c1cccnc1 [nicotinamide]
quenching of the whole cell sirtuin reaction (SirT1 (HCT116 cells); HCT116 whole cells): ineffective at quenching the reaction
